Patent US20250032425A1, “FIRST IN CLASS USE OF ESTROGEN RECEPTOR BETA AGONISTS IN TREATING ANGELMAN SYNDROME AND RELEVANT AUTISM SPECTRUM DISORDERS” (BROWN UNIVERSITY, priority 2023, published 2025)
“Also recorded” adds a separate entry of the source.

How the values were obtained:
[1] = system: rat primary OPCs deficient in UBE3A; assay: Ki67 immunoblotting in primary rat OPCs with Ube3A siRNA knockdown; assay type: cell-based; conditions: siUBE3A; 10 μM over 24 hours; vs siUBE3A alone
Method: OPC purification followed our protocol previously described in Mei et al., 2016 (Identification of the Kappa-Opioid Receptor as a Therapeutic Target for Oligodendrocyte Remyelination. J Neurosci 36, 7925-7935), isolating cells from day 7 postnatal rat cortical hemispheres. The process began with mechanical dissection and papain digestion at 37° C. for 75 minutes, with occasional shaking. After trituration, cells were processed through immunopanning with 0.2% BSA, involving 30 minutes of negative and 45 minutes of positive selection. Selection plates were pre-treated with secondary antibodies and incubated with primary antibodies Ran-2, Gal-C (for negative) and O4 (for positive selection). Trypsin dissociated OPCs from the selection dish, and the reaction was stopped with 30% FBS, achieving >95% purity. OPCs were then plated on poly-1-lysine-coated coverslips in a nutrient-rich medium and incubated at 37° C. and 5% CO2 overnight. Post PDGF-AA removal, OPCs received either compound or control treatments for 2 days, with vehicle controls adjusted to match treatment concentrations.
The siRNAs targeting UBE3A (Thermo Fisher, #4390815 and #4390816), estrogen receptors (Thermo Scientific #145909 for ESRβ, #145539 for ESRα, and #4390824 for GPER), and negative control (Thermo Scientific, #AM4615) were obtained commercially. […]

[2] = system: Angelman syndrome (AS) mice; assay: Hindlimb Clasping test in AS mice; assay type: in vivo, mouse
Method: Animal handling and experimental use strictly followed NIH guidelines and protocols approved by the local Institutional Animal Care and Use Committee (IACUC) of Brown University. In all experiments, Mice were age and gender-matched. Multiple liters were used for all experiments. Weaned mice, housed in groups of two to four per cage, were maintained on a 12-h light/dark cycle with food and water ad libitum.
ESRβ agonist AC-186 treatment in vivo. 10 mg/kg AC-186 was daily IP delivered after dissolved at high concentration (30 mg/ml) in DMSO and further diluted in 20% PEG300. Vehicle groups received the same volume and concentration of diluted DMSO in 20% PEG300. Treatment started at P13 and continued until mice were sacrificed at P42.
The Hindlimb Clasping test, which was administered as delineated in a prior study, Guyenet et al., 2010 (A simple composite phenotype scoring system for evaluating 10 mouse models of cerebellar ataxia. J Vis Exp.), is a neurological evaluation that involves the temporary suspension of mice to observe their hindlimb reflexes, a reliable indicator of central nervous system pathology. This method involves a 10-second observation period during which the mice's hindlimb positions are closely monitored and scored. […]

For `Oc1ccc(C2(c3ccccc3F)CCC(F)(F)CC2)cc1` [AC-186], the “OPC proliferation (Ki67 expression)” value [1] was “rescues impaired proliferation; also recorded: rescued; also recorded: reversed; also recorded: rescue of OPC proliferation; also recorded: increased Ki67 expression”, the Hindlimb clasping score ([2]; AS mice, 10 mg/kg daily IP from P13-14, vs AS vehicle, 10 mg/kg) was “significantly alleviated neurological symptoms; also recorded: decreased” and the Hindlimb clasping score ([2]; wildtype mice, 10 mg/kg daily IP) was “without affecting wildtype mice”.
